Source: the supplement of paper PMC10307832

Assays:
Experiment in all cases: relative viability (nuclei count vs DMSO), 5 days (fraction); higher = more cells survive
JZL-184 + Vorinostat = compound: C1CN(CCC1C(C2=CC3=C(C=C2)OCO3)(C4=CC5=C(C=C4)OCO5)O)C(=O)OC6=CC=C(C=C6)[N+](=O)[O-] [JZL-184] + O=C(CCCCCCC(=O)Nc1ccccc1)NO [Vorinostat] (partner 1 µM)
Summary of the method: (§1)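 Values are medians from duplicate plates. Each reflects relative viability, defined as the nuclei count of treated wells over that of vehicle wells. Lung cancer cell lines in 1536-well plates were pin-tool dosed one day after seeding with one drug alone or with a fixed anchor-drug dose plus five library-drug doses (not always all listed) in √10 steps, then fixed, stained and imaged at 4× after 5 days.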

JZL-184 + Olaparib = compound: C1CN(CCC1C(C2=CC3=C(C=C2)OCO3)(C4=CC5=C(C=C4)OCO5)O)C(=O)OC6=CC=C(C=C6)[N+](=O)[O-] [JZL-184] + O=C(c1cc(Cc2n[nH]c(=O)c3ccccc23)ccc1F)N1CCN(C(=O)C2CC2)CC1 [Olaparib] (partner 8 µM)
Summary of the method: as §1

JZL-184 + Pemetrexed = compound: C1CN(CCC1C(C2=CC3=C(C=C2)OCO3)(C4=CC5=C(C=C4)OCO5)O)C(=O)OC6=CC=C(C=C6)[N+](=O)[O-] [JZL-184] + Nc1nc2[nH]cc(CCc3ccc(C(=O)N[C@@H](CCC(=O)O)C(=O)O)cc3)c2c(=O)[nH]1 [Pemetrexed] (partner 0.2 µM)
Summary of the method: as §1

JZL-184 + Decitabine = compound: C1CN(CCC1C(C2=CC3=C(C=C2)OCO3)(C4=CC5=C(C=C4)OCO5)O)C(=O)OC6=CC=C(C=C6)[N+](=O)[O-] [JZL-184] + Nc1ncn([C@H]2C[C@H](O)[C@@H](CO)O2)c(=O)n1 [Decitabine] (partner 2 µM)
Summary of the method: as §1

JZL-184 + Alpelisib = compound: C1CN(CCC1C(C2=CC3=C(C=C2)OCO3)(C4=CC5=C(C=C4)OCO5)O)C(=O)OC6=CC=C(C=C6)[N+](=O)[O-] [JZL-184] + Cc1nc(NC(=O)N2CCC[C@H]2C(N)=O)sc1-c1ccnc(C(C)(C)C(F)(F)F)c1 [Alpelisib] (partner 2 µM)
Summary of the method: as §1

Cell Line	relative viability (JZL-184 + Vorinostat; first compound 0.04 µM)	relative viability (JZL-184 + Vorinostat; first compound 0.4 µM)	relative viability (JZL-184 + Vorinostat; first compound 1.265 µM)	relative viability (JZL-184 + Vorinostat; first compound 4 µM)	relative viability (JZL-184 + Olaparib; first compound 0.04 µM)	relative viability (JZL-184 + Olaparib; first compound 0.4 µM)	relative viability (JZL-184 + Olaparib; first compound 1.265 µM)	relative viability (JZL-184 + Olaparib; first compound 4 µM)	relative viability (JZL-184 + Pemetrexed; first compound 0.04 µM)	relative viability (JZL-184 + Pemetrexed; first compound 0.4 µM)	relative viability (JZL-184 + Pemetrexed; first compound 1.265 µM)	relative viability (JZL-184 + Pemetrexed; first compound 4 µM)	relative viability (JZL-184 + Decitabine; first compound 0.04 µM)	relative viability (JZL-184 + Decitabine; first compound 0.4 µM)	relative viability (JZL-184 + Decitabine; first compound 1.265 µM)	relative viability (JZL-184 + Decitabine; first compound 4 µM)	relative viability (JZL-184 + Alpelisib; first compound 0.04 µM)	relative viability (JZL-184 + Alpelisib; first compound 0.4 µM)	relative viability (JZL-184 + Alpelisib; first compound 1.265 µM)	relative viability (JZL-184 + Alpelisib; first compound 4 µM)
SK-LU-1	0.795	0.744	0.894	0.717	0.593	0.408	0.463	0.642	1.04	0.887	1	0.881	0.673	0.584	0.705	0.698	1.51	0.931	1.3	1.06
NCI-H1437	0.731	0.725	0.756	0.659	0.665	0.61	0.632	0.636	0.306	0.322	0.309	0.312	0.649	0.611	0.585	0.561	1.12	0.971	0.92	0.916
NCI-H1734	0.927	0.762	0.844	0.834	0.674	0.589	0.627	0.547	0.462	0.426	0.419	0.42	0.536	0.494	0.512	0.501	0.658	0.545	0.714	0.642
LK-2	0.275	0.309	0.251	0.295	0.777	0.661	0.939	0.835	0.235	0.2	0.183	0.277	0.254	0.198	0.273	0.304	1.55	1.14	1.06	1.06
HCC-15	0.918	0.796	0.919	0.773	0.725	0.685	0.771	0.736	0.222	0.217	0.212	0.23	0.625	0.692	0.647	0.575	0.933	0.899	0.877	0.931
HCC-366	0.408	0.242	0.361	0.313	0.361	0.353	0.302	0.36	0.175	0.146	0.137	0.161	0.348	0.357	0.336	0.314	0.355	0.436	0.506	0.358
NCI-H650	0.518	0.369	0.422	0.414	0.427	0.369	0.438	0.381	0.894	0.924	1.04	1.01	0.308	0.319	0.317	0.306	1.23	0.951	1.16	1.1
NCI-H2347		0.494	0.661	0.616		0.577	0.586	0.53	0.388	0.368	0.402	0.45		0.577	0.657	0.644	1.05	1.02	1.05	1.1
